Where two headings read alike, the source gives them in different places.
Assays:
[1] = tested on: LPS-induced microglia activation; test: Image-based assay of LPS-induced microglia activation (HTS and dose response); assay type: cell-based, rat; details: for inhibition at 10 µM: Rattus norvegicus, Microglia, read-out: LPS % inhibition
[2] = tested on: primary rat microglia; test: Cell toxicity (dead cells, size <150 μm2) in coated fibrin (cFib) assay;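 note: share of dead cells sized under 150 µm2 at 10 µM in fibrin-stimulated microglia HTS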
[3] = tested on: fibrin-induced microglia activation; test: Image-based assay of fibrin-induced microglia activation (HTS and dose response); assay type: cell-based, rat; details: for inhibition at 10 µM: Rattus norvegicus, Microglia, read-out: Fibrin % inhibition
[4] = tested on: fibrin- and LPS-induced microglia activation; test: cells; assay type: cell-based, rat
[5] = tested on: primary rat microglia; test: Cell toxicity (dead cells, size <150 μm2) in LPS assay
[6] = 48 h, primary microglia HTS, LPS stimulation, increased cell size (>800 μm^2) as marker of activation
[7] = primary microglia HTS, fibrin stimulation, decreased size (<150 μm^2) as marker of toxicity
[8] = primary microglia HTS, fibrin stimulation, increased cell size (>800 μm^2) as marker of activation
[9] = quadrant by fibrin and LPS inhibition in HTS of 1907 compounds
[10] = primary microglia HTS, LPS stimulation, decreased size (<150 μm^2) as marker of toxicity
[11] = primary microglia HTS, 10 μM, LPS-stimulated, cell size >800 μm^2 as marker of activation
[12] = primary microglia HTS, 10 μM, fibrin assay, cell size <150 μm^2 as marker of toxicity
[13] = primary microglia HTS, 10 μM, fibrin-stimulated, cell size >800 μm^2 as marker of activation
[14] = HTS of 1907 compounds, quadrant by fibrin and LPS inhibition
[15] = primary microglia HTS, 10 μM, LPS assay, cell size <150 μm^2 as marker of toxicity
[16] = primary HTS, 10 μM, LPS-stimulated primary microglia
[17] = primary HTS, 10 μM, fibrin assay, dead cells size <150 μm2
[18] = primary HTS, 10 μM, fibrin-stimulated primary microglia
[19] = primary HTS, 10 μM, LPS assay, dead cells size <150 μm2

O=C(N/N=C/c1ccc([N+](=O)[O-])o1)c1cc([N+](=O)[O-])cc([N+](=O)[O-])c1O [Nifursol]
inhibition at 10 µM [1, 6]: 20% | Fibrin % cell toxicity [2, 7]: 1% | inhibition at 10 µM [3, 8]: 47% | Quadrant (FIG. 5b) [4, 9]: Q4 | LPS % cell toxicity [5, 10]: 0%

Cc1ccc(Nc2c(F)cccc2Cl)c(CC(=O)O)c1 [Lumiracoxib]
inhibition at 10 µM [1, 6]: 18% | Fibrin % cell toxicity [2, 7]: 1% | inhibition at 10 µM [3, 8]: 14% | Quadrant (FIG. 5b) [4, 9]: Q4 | LPS % cell toxicity [5, 10]: 0%

C[n+]1cc2c3c(ccc2c2ccc4cc5c(cc4c21)OCO5)OCO3
LPS % inhibition ([1]; primary microglia HTS, LPS stimulation, increased cell size (>800 μm^2) as marker of activation): 101% | Fibrin % cell toxicity [2, 7]: 0% | Fibrin % inhibition [3, 8]: 24% | Quadrant (FIG. 5b) [4, 9]: Q1 | LPS % cell toxicity [5, 10]: 55%

CC(=O)OCC(COC(C)=O)OC(C)=O [Triacetin]
inhibition at 10 µM [1, 11]: 15% | Fibrin % cell toxicity [2, 12]: 1% | inhibition at 10 µM [3, 13]: -32% | Quadrant (FIG. 5b) [4, 14]: Q4 | LPS % cell toxicity [5, 15]: 0%

CN(C)CCOC(c1ccc(Cl)cc1)c1ccccn1 (centres unmarked) [Carbinoxamine]
inhibition at 10 µM [1, 16]: -3% | Fibrin % cell toxicity [2, 17]: 0% | inhibition at 10 µM [3, 18]: 6% | Quadrant (FIG. 5b) ([4]; primary HTS, 10 μM): Q4 | LPS % cell toxicity [5, 19]: 0%

COc1cc2c3cc1Oc1cc(ccc1O)C[C@@H]1c4c(cc(OC)c(O)c4Oc4ccc(cc4)C[C@@H]3N(C)CC2)CC[N+]1(C)C [Tubocurarine]
inhibition at 10 µM [1, 11]: 19% | Fibrin % cell toxicity [2, 12]: 0% | inhibition at 10 µM [3, 13]: -1% | Quadrant (FIG. 5b) [4, 14]: Q4 | LPS % cell toxicity [5, 15]: 0%

COc1cc(C(=O)NCCCCCC(=O)O)cc(OC)c1OC [Capobenic Acid]
inhibition at 10 µM [1, 16]: 16% | Fibrin % cell toxicity [2, 17]: 1% | inhibition at 10 µM [3, 18]: 9% | Quadrant (FIG. 5b) ([4]; primary HTS, 10 μM): Q4 | LPS % cell toxicity [5, 19]: 0%

CCCCNc1ccc(C(=O)OCCN(C)C)cc1 [Tetracaine]
inhibition at 10 µM [1, 11]: 9% | Fibrin % cell toxicity [2, 12]: 1% | inhibition at 10 µM [3, 13]: 4% | Quadrant (FIG. 5b) [4, 14]: Q4 | LPS % cell toxicity [5, 15]: 1%

O=C(NCCN1CCOCC1)c1ccc(Cl)cc1 [Moclobemide]
inhibition at 10 µM [1, 6]: 14% | Fibrin % cell toxicity [2, 7]: 1% | inhibition at 10 µM [3, 8]: -6% | Quadrant (FIG. 5b) [4, 9]: Q4 | LPS % cell toxicity [5, 10]: 0%

Cc1ccc(C(=O)Nc2ccc(S(=O)(=O)O)c3cc(S(=O)(=O)O)cc(S(=O)(=O)O)c23)cc1NC(=O)c1cccc(NC(=O)Nc2cccc(C(=O)Nc3cc(C(=O)Nc4ccc(S(=O)(=O)O)c5cc(S(=O)(=O)O)cc(S(=O)(=O)O)c45)ccc3C)c2)c1 [Suramin]
inhibition at 10 µM [1, 11]: 18% | Fibrin % cell toxicity [2, 12]: 0% | inhibition at 10 µM [3, 13]: -5% | Quadrant (FIG. 5b) [4, 14]: Q4 | LPS % cell toxicity [5, 15]: 0%

C[N+](C)(C)CCOC(=O)CCC(=O)OCC[N+](C)(C)C [Succinylcholine]
inhibition at 10 µM [1, 11]: -5% | Fibrin % cell toxicity [2, 12]: 1% | inhibition at 10 µM [3, 13]: -54% | Quadrant (FIG. 5b) [4, 14]: Q4 | LPS % cell toxicity [5, 15]: 0%

Oc1c(I)cc(Cl)c2cccnc12 [Clioquinol]
inhibition at 10 µM [1, 16]: 22% | Fibrin % cell toxicity [2, 17]: 1% | inhibition at 10 µM [3, 18]: -11% | Quadrant (FIG. 5b) ([4]; primary HTS, 10 μM): Q4 | LPS % cell toxicity [5, 19]: 1%

CC/C=C\C/C=C\C/C=C\C/C=C\C/C=C\CCCC(=O)OCC [Icosapent ethyl]
inhibition at 10 µM ([1]; 48 h, primary microglia HTS, LPS stimulation, activation = cell size >800 μm2): 1% | Fibrin % cell toxicity ([2]; primary microglia HTS, fibrin stimulation, toxicity = cell size <150 μm2): 0% | inhibition at 10 µM ([3]; primary microglia HTS, fibrin stimulation, activation = cell size >800 μm2): -13% | Quadrant (FIG. 5b) [4, 9]: Q4 | LPS % cell toxicity ([5]; primary microglia HTS, LPS stimulation, toxicity = cell size <150 μm2): 0%

From patent publication US20210330611A1, “THERAPY FOR NEUROLOGICAL DISEASES/DISORDERS” (priority 2020, published 2021)
